In ChEMBL document CHEMBL5543082, “In vitro and in vivo anti-pigmentation effects of 2-mercaptobenzimidazoles as nanomolar tyrosinase inhibitors on mammalian cells and zebrafish embryos: Preparation of pigment-free zebrafish embryos” (Eur J Med Chem, 2024):
Activity calls are given as the source filed them. The rule behind the calls is not given here.

Columns and labels:
[1] = molecular target: T1, Tyrosinase (Mus musculus) (UniProt P11344); assay: Inhibition of tyrosinase activity in mouse B16-F10 cells preincubated for 1 hr followed by alpha-MSH and IBMX addition and measured after 72 hrs; format: cell-based; conditions: time 73.0 hrs
T1 sequence (whole entry): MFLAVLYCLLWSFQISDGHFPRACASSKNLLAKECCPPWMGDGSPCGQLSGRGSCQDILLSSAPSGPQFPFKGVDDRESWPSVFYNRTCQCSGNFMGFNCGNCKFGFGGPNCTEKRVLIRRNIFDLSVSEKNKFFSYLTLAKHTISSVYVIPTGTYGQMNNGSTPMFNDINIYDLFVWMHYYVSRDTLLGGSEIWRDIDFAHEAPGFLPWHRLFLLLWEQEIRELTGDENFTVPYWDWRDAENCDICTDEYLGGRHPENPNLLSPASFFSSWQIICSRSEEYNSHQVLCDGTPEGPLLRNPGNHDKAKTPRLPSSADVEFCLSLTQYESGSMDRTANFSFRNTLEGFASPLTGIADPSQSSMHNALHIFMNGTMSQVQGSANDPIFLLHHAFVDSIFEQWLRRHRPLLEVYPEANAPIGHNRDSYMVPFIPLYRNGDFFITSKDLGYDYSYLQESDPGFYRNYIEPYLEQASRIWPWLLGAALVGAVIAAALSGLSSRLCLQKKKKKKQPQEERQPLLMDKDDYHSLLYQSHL

[2] = tested on: B16-F10; assay: Inhibition of melanin production in mouse B16-F10 cells preincubated for 1 hr followed by alpha-MSH and IBMX addition and measured after 72 hrs; format: functional, cell-based; conditions: dose 5-20 µM, time 73.0 hrs
[3] = tested on: B16-F10; assay: Cytotoxicity against mouse B16-F10 cells at <= 20 uM after 72 hrs by EZ-Cytox solution based microplate reader assay; format: toxicity, cell-based; conditions: b16-f10, 72 h
[4] = tested on: HaCaT; assay: Cytotoxicity against human HaCaT cells at <= 20 uM after 24 hrs by EZ-Cytox solution based microplate reader assay; format: toxicity, cell-based
[5] = tested on: Danio rerio; assay: Depigmentation activity in zebrafish embryos administered at 21 hpf and measured after 69 hpf; format: functional, organism-based; conditions: dose 0.01-0.4 mM, time […]
[6] = Antioxidant activity assessed as peroxynitrite scavenging activity by measuring rhodamine 123 fluorescence intensity at 50 uM in presence of SIN-1; format: functional
[7] = Antioxidant activity assessed as reduction in FeSO4 induced hydroxyl radical production at 40 uM; format: functional
[8] = Antioxidant activity assessed as reduction in H2O2 induced hydroxyl radical production at 40 uM; format: functional
[9] = molecular target: T2, Mushroom tyrosinase (Agaricus bisporus, UniProt O42713+Q00024+C7FF04+C7FF05); assay: Inhibition of mushroom tyrosinase diphenolase activity using L-dopa as substrate incubated for 0.5 hrs; format: protein assay
[10] = molecular target: T2, Mushroom tyrosinase; assay: Inhibition of mushroom tyrosinase monophenolase activity using L-tyrosine as substrate incubated for 0.5 hrs; format: protein assay

Row | Compound | inhibition [1] | inhibition [2] | Activity [3] | Activity [4] | Activity [5] | Activity [6] | Activity [7] | Activity [8] | IC50 [9] [nM] | IC50 [10] [nM]
1 | Sc1nc2cc(Cl)ccc2[nH]1 | Dose-Dependent Effect | Dose-Dependent Effect | Non-Toxic | Non-Toxic | Dose-Dependent Effect | Active | inactive | inactive |  | 
2 | Cc1ccc2[nH]c(=S)[nH]c2c1 | Dose-Dependent Effect | Dose-Dependent Effect |  |  | Dose-Dependent Effect |  | inactive | inactive |  | 
3 | CC(C)(S)[C@@H](N)C(=O)O |  |  |  |  |  | Active |  |  |  | 
4 | COc1ccc2[nH]c(S)nc2c1 |  |  |  |  | Dose-Dependent Effect |  | inactive | inactive |  | 
5 | Sc1nc2ccccc2[nH]1 |  |  |  |  | Dose-Dependent Effect |  | inactive | inactive |  | 
6 | Cc1ccc2[nH]c(S)nc2c1 |  |  | Non-Toxic | Non-Toxic |  |  |  |  |  | 
7 | Cc1cccc2[nH]c(=S)[nH]c12 |  |  |  |  | Dose-Dependent Effect |  | inactive | inactive | 740 | 5780
8 | O=C(c1ccccc1)c1ccc2[nH]c(S)nc2c1 | Dose-Dependent Effect | Dose-Dependent Effect |  |  | Dose-Dependent Effect | Active | inactive | inactive | 20 | 100
9 | N#Cc1ccc2[nH]c(S)nc2c1 |  |  |  |  | Dose-Dependent Effect | Active | inactive | inactive | 40 | 110
10 | O=[N+]([O-])c1ccc2[nH]c(S)nc2c1 |  |  |  |  | Dose-Dependent Effect |  | inactive | inactive |  | 
11 | Fc1ccc2[nH]c(S)nc2c1 |  |  |  |  | Dose-Dependent Effect |  | inactive | inactive |  | 
12 | Cc1cc2nc(S)[nH]c2cc1C | Dose-Dependent Effect | Dose-Dependent Effect | Non-Toxic | Non-Toxic | Dose-Dependent Effect |  | inactive | inactive |  | 
13 | O=C(c1ccccc1)c1ccc2[nH]c(=S)[nH]c2c1 |  |  | Non-Toxic | Non-Toxic |  |  |  |  |  | 
14 | Cc1c(C)c2c(c(C)c1O)CCC(C)(C(=O)O)O2 (centres undefined) |  |  |  |  |  | Active | Active | Active |  | 
